# US20230024302A1, “2,3,5-TRISUBSTITUTED PYRAZOLO[1,5-A]PYRIMIDINE COMPOUNDS” (Arcus Biosciences, Inc., priority 2019, published 2023)
# Legend:
# PI3Kγ = molecular target: T1, PI3Kγ (Homo sapiens, UniProt P48736); assay: PI3Kγ cellular assay in THP-1 cells (AKT pS473 AlphaLISA); format: cell-based; conditions: Table 1, rhMCP-1 stimulated AKT pS473, read-out: cellular potency (PI3Kγ IC50)
# T1 construct: host or cells: THP-1
# In short: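 Serum-starved THP-1 cells (1.8×10^5/well, serum-free DMEM) treated with compounds from 4 nM to 30 μM in 2% DMSO, then stimulated and lysed.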
# PI3Kγ (p120γ) = molecular target: T2, PI3Kγ (p120γ) (Homo sapiens, UniProt P48736); assay: Inhibition of PI3K kinase activity (ADP Glo), PI3Kγ; conditions: Table 1, p120γ, read-out: biochemical potency (PI3Kγ IC50)
# T2 construct: purchased Promega V1761
# In short: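 Recombinant p120γ (8 nM, 2× stock) was preincubated with compound for 1 h at rt in HEPES pH 7.4, NaCl, MgCl2 and 0.05% BSA. Reaction was started with PIP2 (0.1 mg/ml, 2×) and ATP (50 μM, 2×) and ran 60 min at rt. ADP formed was read by ADP-Glo luminescence, and IC50 came from a 4-parameter fit.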
# T1 sequence (P48736 whole entry): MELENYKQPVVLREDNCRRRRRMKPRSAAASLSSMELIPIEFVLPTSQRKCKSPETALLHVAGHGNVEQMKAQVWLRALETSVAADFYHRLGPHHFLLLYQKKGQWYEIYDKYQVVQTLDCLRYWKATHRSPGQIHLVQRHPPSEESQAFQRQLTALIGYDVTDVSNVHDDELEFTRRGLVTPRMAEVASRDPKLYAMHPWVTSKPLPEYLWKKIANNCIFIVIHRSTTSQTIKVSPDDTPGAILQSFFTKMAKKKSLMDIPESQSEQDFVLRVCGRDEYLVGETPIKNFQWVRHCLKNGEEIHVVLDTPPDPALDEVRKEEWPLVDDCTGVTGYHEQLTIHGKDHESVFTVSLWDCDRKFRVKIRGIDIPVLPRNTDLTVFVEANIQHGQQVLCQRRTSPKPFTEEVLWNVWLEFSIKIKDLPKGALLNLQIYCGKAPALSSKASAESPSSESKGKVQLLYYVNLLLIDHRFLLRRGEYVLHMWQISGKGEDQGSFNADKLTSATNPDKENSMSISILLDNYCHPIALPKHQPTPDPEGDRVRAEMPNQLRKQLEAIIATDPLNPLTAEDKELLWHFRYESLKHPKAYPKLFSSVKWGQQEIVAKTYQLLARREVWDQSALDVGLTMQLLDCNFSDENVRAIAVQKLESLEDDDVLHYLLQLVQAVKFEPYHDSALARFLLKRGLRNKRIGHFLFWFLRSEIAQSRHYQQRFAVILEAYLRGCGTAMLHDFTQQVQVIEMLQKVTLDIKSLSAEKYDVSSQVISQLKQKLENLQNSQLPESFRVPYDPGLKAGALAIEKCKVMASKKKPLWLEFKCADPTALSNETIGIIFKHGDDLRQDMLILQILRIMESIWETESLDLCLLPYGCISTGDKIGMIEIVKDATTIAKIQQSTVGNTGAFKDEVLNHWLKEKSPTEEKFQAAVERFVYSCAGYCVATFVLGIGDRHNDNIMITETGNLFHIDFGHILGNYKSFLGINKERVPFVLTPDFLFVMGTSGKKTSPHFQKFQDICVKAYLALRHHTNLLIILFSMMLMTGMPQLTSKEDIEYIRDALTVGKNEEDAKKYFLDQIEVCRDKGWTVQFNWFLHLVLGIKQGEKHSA
# T2 sequence (P48736 whole entry): as above
Structure (SMILES),IC50 (PI3Kγ),IC50 (PI3Kγ (p120γ))
"C[C@@H](C1CC1)N1Cc2cc(-c3ccn4nc(N)c(C(=O)Nc5ccc(N)nc5)c4n3)cc(OC(F)(F)F)c2C1=O [Example 46, 2-[(S)-1-Cyclopropylethyl]-5-{2-amino-3-[(6-amino-3-pyridylamino)carbonyl]-1,4,7a-triaza-5-indenyl}-7-trifluoromethoxy-1-isoindolinone]",< 100 nM,< 100 nM
"Cc1ccncc1NC(=O)c1c(N)nn2ccc(-c3cc4c(c(OC(F)(F)F)c3)C(=O)N([C@@H](C)C3CC3)C4)nc12 [Example 47, (S)-2-Amino-5-(2-(1-cyclopropylethyl)-1-oxo-7-(trifluoromethoxy)isoindolin-5-yl)-N-(4-methylpyridin-3-yl)pyrazolo[1,5-a]pyrimidine-3-carboxamide]",< 100 nM,< 100 nM
"COc1ccncc1NC(=O)c1c(N)nn2ccc(-c3cc4c(c(OC(F)(F)F)c3)C(=O)N([C@@H](C)C3CC3)C4)nc12 [Example 48, (S)-2-Amino-5-(2-(1-cyclopropylethyl)-1-oxo-7-(trifluoromethoxy)isoindolin-5-yl)-N-(4-methoxypyridin-3-yl)pyrazolo[1,5-a]pyrimidine-3-carboxamide]",< 100 nM,< 100 nM
"C[C@@H](C1CC1)N1Cc2cc(-c3ccn4nc(N)c(C(=O)N[C@H]5CCNC5=O)c4n3)cc(C(F)(F)F)c2C1=O [Example 49, 2-Amino-5-{2-[(1S)-1-cyclopropylethyl]-1-oxo-7-(trifluoromethyl)-2,3-dihydro-1H-isoindol-5-yl}-N-[(3S)-2-oxopyrrolidin-3-yl]pyrazolo[1,5-a]pyrimidine-3-carboxamide]",< 100 nM,< 100 nM
"C[C@H](CO)NC(=O)c1c(N)nn2ccc(-c3cc4c(c(C(F)(F)F)c3)C(=O)N([C@@H](C)C3CC3)C4)nc12 [Example 50, 5-(3-{[(R)-2-Hydroxy-1-methylethylamino]carbonyl}-2-amino-1,4,7a-triaza-5-indenyl)-2-[(S)-1-cyclopropylethyl]-7-(trifluoromethyl)-1-isoindolinone]",< 100 nM,< 100 nM
"C[C@@H](C1CC1)N1Cc2cc(-c3ccn4nc(N)c(C(=O)NCCO)c4n3)cc(C(F)(F)F)c2C1=O [Example 51, 2-[(S)-1-Cyclopropylethyl]-5-{2-amino-3-[(2-hydroxyethylamino)carbonyl]-1,4,7a-triaza-5-indenyl}-7-(trifluoromethyl)-1-isoindolinone]",< 100 nM,< 100 nM
"C[C@@H](C1CC1)N1Cc2cc(-c3ccn4nc(N)c(C(=O)NCCCO)c4n3)cc(C(F)(F)F)c2C1=O [Example 52, 2-[(S)-1-Cyclopropylethyl]-5-{2-amino-3-[(3-hydroxypropylamino)carbonyl]-1,4,7a-triaza-5-indenyl}-7-(trifluoromethyl)-1-isoindolinone]",< 100 nM,< 100 nM
"C[C@@H](C1CC1)N1Cc2cc(-c3ccn4nc(N)c(C(=O)NC5COC5)c4n3)cc(C(F)(F)F)c2C1=O [Example 53, 2-[(S)-1-Cyclopropylethyl]-5-{2-amino-3-[(3-oxetanylamino)carbonyl]-1,4,7a-triaza-5-indenyl}-7-(trifluoromethyl)-1-isoindolinone]",< 100 nM,< 100 nM
"C[C@@H](C1CC1)N1Cc2cc(-c3ccn4nc(N)c(C(=O)N[C@H]5CC[C@@](C)(O)CC5)c4n3)cc(C(F)(F)F)c2C1=O [Example 54, 2-[(S)-1-Cyclopropylethyl]-5-{2-amino-3-[(cis-4-hydroxy-4-methylcyclohexylamino)carbonyl]-1,4,7a-triaza-5-indenyl}-7-(trifluoromethyl)-1-isoindolinone]",< 100 nM,< 100 nM
"C[C@@H](C1CC1)N1Cc2cc(-c3ccn4nc(N)c(C(=O)N[C@H]5CC[C@](O)(C(F)(F)F)CC5)c4n3)cc(C(F)(F)F)c2C1=O [Example 55, 2-[(S)-1-Cyclopropylethyl]-5-(2-amino-3-{[cis-4-hydroxy-4-(trifluoromethyl)cyclohexylamino]carbonyl}-1,4,7a-triaza-5-indenyl)-7-(trifluoromethyl)-1-isoindolinone]",< 100 nM,< 100 nM
"C[C@@H](C1CC1)N1Cc2cc(-c3ccn4nc(N)c(C(=O)NC5(C)COC5)c4n3)cc(C(F)(F)F)c2C1=O [Example 56, 2-[(S)-1-Cyclopropylethyl]-5-{2-amino-3-[(3-methyl-3-oxetanylamino)carbonyl]-1,4,7a-triaza-5-indenyl}-7-(trifluoromethyl)-1-isoindolinone]",< 100 nM,< 100 nM
"C[C@H](CCO)NC(=O)c1c(N)nn2ccc(-c3cc4c(c(C(F)(F)F)c3)C(=O)N([C@@H](C)C3CC3)C4)nc12 [Example 57, 5-(3-{[(R)-3-Hydroxy-1-methylpropylamino]carbonyl}-2-amino-1,4,7a-triaza-5-indenyl)-2-[(S)-1-cyclopropylethyl]-7-(trifluoromethyl)-1-isoindolinone]",< 100 nM,< 100 nM
"C[C@@H](C1CC1)N1Cc2cc(-c3ccn4nc(N)c(C(=O)NCCCCO)c4n3)cc(C(F)(F)F)c2C1=O [Example 58, 2-[(S)-1-Cyclopropylethyl]-5-{2-amino-3-[(4-hydroxybutylamino)carbonyl]-1,4,7a-triaza-5-indenyl}-7-(trifluoromethyl)-1-isoindolinone]",< 100 nM,< 100 nM
"C[C@@H](C1CC1)N1Cc2cc(-c3ccn4nc(N)c(C(=O)NCCC(C)(C)O)c4n3)cc(C(F)(F)F)c2C1=O [Example 59, 2-[(S)-1-Cyclopropylethyl]-5-{2-amino-3-[(3-hydroxy-3-methylbutylamino)carbonyl]-1,4,7a-triaza-5-indenyl}-7-(trifluoromethyl)-1-isoindolinone]",< 100 nM,< 100 nM
"C[C@@H](C1CC1)N1Cc2cc(-c3ccn4nc(N)c(C(=O)N[C@H]5CC[C@H](CO)CC5)c4n3)cc(C(F)(F)F)c2C1=O [Example 60, 2-Amino-5-(2-((S)-1-cyclopropylethyl)-1-oxo-7-(trifluoromethyl)isoindolin-5-yl)-N-(trans-4-(hydroxymethyl)cyclohexyl)pyrazolo[1,5-a]pyrimidine-3-carboxamide]",< 100 nM,< 100 nM

# More lines, now with the values ahead:
IC50 (PI3Kγ),IC50 (PI3Kγ (p120γ)),Structure (SMILES)
< 100 nM,< 100 nM,"C[C@@H](C1CC1)N1Cc2cc(-c3ccn4nc(N)c(C(=O)N[C@@H]5COC[C@H]5O)c4n3)cc(OC(F)(F)F)c2C1=O [Example 38, 2-Amino-5-{2-[(1S)-1-cyclopropylethyl]-1-oxo-7-(trifluoromethoxy)-2,3-dihydro-1H-isoindol-5-yl}-N-[(3R,4S)-4-hydroxyoxolan-3-yl]pyrazolo[1,5-a]pyrimidine-3-carboxamide]"
< 100 nM,< 100 nM,"C[C@@H](C1CC1)N1Cc2cc(-c3ccn4nc(N)c(C(N)=O)c4n3)cc(OC(F)(F)F)c2C1=O [Example 39, 5-{2-[(S)-1-Cyclopropylethyl]-7-trifluoromethoxy-5-isoindolinoyl}-2-amino-1,4,7a-triaza-3-indenecarboxamide]"
< 100 nM,< 100 nM,"C[C@@H](C1CC1)N1Cc2cc(-c3ccn4nc(N)c(C(=O)Nc5ccncc5)c4n3)cc(OC(F)(F)F)c2C1=O [Example 40, (S)-2-Amino-5-(2-(1-cyclopropylethyl)-1-oxo-7-(trifluoromethoxy)isoindolin-5-yl)-N-(pyridin-4-yl)pyrazolo[1,5-a]pyrimidine-3-carboxamide]"
< 100 nM,< 100 nM,"C[C@@H](C1CC1)N1Cc2cc(-c3ccn4nc(N)c(C(=O)Nc5cccnc5)c4n3)cc(OC(F)(F)F)c2C1=O [Example 41, (S)-2-Amino-5-(2-(1-cyclopropylethyl)-1-oxo-7-(trifluoromethoxy)isoindolin-5-yl)-N-(pyridin-3-yl)pyrazolo[1,5-a]pyrimidine-3-carboxamide]"
< 100 nM,< 100 nM,"C[C@@H](C1CC1)N1Cc2cc(-c3ccn4nc(N)c(C(=O)Nc5cncc(F)c5)c4n3)cc(OC(F)(F)F)c2C1=O [Example 42, 2-Amino-5-{2-[(1S)-1-cyclopropylethyl]-1-oxo-7-(trifluoromethoxy)-2,3-dihydro-1H-isoindol-5-yl}-N-(5-fluoropyridin-3-yl)pyrazolo[1,5-a]pyrimidine-3-carboxamide]"
< 100 nM,< 100 nM,"COc1cncc(NC(=O)c2c(N)nn3ccc(-c4cc5c(c(OC(F)(F)F)c4)C(=O)N([C@@H](C)C4CC4)C5)nc23)c1 [Example 43, 2-Amino-5-{2-[(1S)-1-cyclopropylethyl]-1-oxo-7-(trifluoromethoxy)-2,3-dihydro-1H-isoindol-5-yl}-N-(5-methoxypyridin-3-yl)pyrazolo[1,5-a]pyrimidine-3-carboxamide]"
< 100 nM,< 100 nM,"Cc1ncccc1NC(=O)c1c(N)nn2ccc(-c3cc4c(c(OC(F)(F)F)c3)C(=O)N([C@@H](C)C3CC3)C4)nc12 [Example 44, 2-[(S)-1-Cyclopropylethyl]-5-{2-amino-3-[(2-methyl-3-pyridylamino)carbonyl]-1,4,7a-triaza-5-indenyl}-7-trifluoromethoxy-1-isoindolinone]"
< 100 nM,< 100 nM,"Cc1ccc(NC(=O)c2c(N)nn3ccc(-c4cc5c(c(OC(F)(F)F)c4)C(=O)N([C@@H](C)C4CC4)C5)nc23)cn1 [Example 45, 2-[(S)-1-Cyclopropylethyl]-5-{2-amino-3-[(6-methyl-3-pyridylamino)carbonyl]-1,4,7a-triaza-5-indenyl}-7-trifluoromethoxy-1-isoindolinone]"
